Measured values taken from patent publication US20230279351A1, “ARTIFICIAL ANTIGEN-SPECIFIC IMMUNOREGULATORY T (AIRT) CELLS” (Seattle Children's Hospital (dba Seattle Children's …, priority 2019, published 2023).

Experiments:
[1] = tested on: split-DISC (#3280 and #3207) dual-edited human CD4+ T cells; experiment: Enrichment/expansion of split-DISC dual-edited CD4+ T cells; format: cell-based; details: 7-day treatment in AP21967 in gREX, from 340,000 cells seeded
Method: Cells were bead-stimulated (CD3/CD28) for 3 days prior to editing. […] Panel C depicts flow plots show the percentage of GFP/mCherry double-positive cells on day 3 post-editing.
Dual-editing was performed as described in FIG. 70.
Split-DISC constructs were used to determine the enrichment and expansion of dual-edited T cells. The ability to scale up manufacturing to obtain cell numbers sufficient for animal studies by expanding edited CD4+ T cells in gREX flasks was assessed. In particular, dual-editing and enrichment of human CD4+ T Cells using split-DISC constructs was studied. […] Each repair template (#3280 and #3207) was flanked by identical homology arms matched to a gRNA targeting the TRAC locus. […] Cells were bead stimulated (CD3/CD28) for 3 days prior to editing. Immediately following electroporation, the cells were placed in 2.5% FBS containing media (recovery media) for ~24 hours and then maintained in 20% FBS containing media throughout the rest of the experiment. Three days post editing, cells were analyzed by flow for GFP and mCherry expression, and then expanded in media containing 50 ng/ml human IL-2 or 100 nM Rapalog.
Cells were bead stimulated (CD3/CD28) for 3 days prior to editing. Three days post editing, cells were analyzed by flow for GFP and mCherry expression, and then expanded in media containing 100 nM Rapalog for an additional 7 days.

[2] = tested on: split IL-2 CISC (FRB-IL2RB and FKBP-IL2RG) dual-edited human CD4+ T cells; experiment: Enrichment of split IL-2 CISC dual-edited CD4+ T cells; format: cell-based
Method: FIG. 27 depicts an exemplary timeline of steps for dual AAV editing of CD4+ T cells, expansion with rapalog, and analysis of enriched cells. […] Flow cytometry to assess enrichment of GFP, mCherry double-positive cells was carried out on days 6, 8, and 10 post-editing.
CISC components (IL2RG vs. IL2RB) are split between 2 constructs and co-expressed with either HA-FoxP3 cDNA or the islet-specific TCR, T1D4 (AAVs #3240 and #3243 respectively). Each repair template is flanked by identical homology arms that […] the gRNA targeting the TRAC locus. […] Panel B depicts a timeline of key steps for dual AAV/RNP-based editing of CD4+ T cells, expansion with Rapalog and analysis of enriched cells. […] Flow cytometry to assess enrichment of HA-FoxP3, TCR double-positive cells was carried out on days 5 and 8 post-editing.
FIG. 60 relates to a strategy for testing two-loci dual-editing of human CD4+ T cells. […] CISC components are split between 2 constructs and co-expressed with either mCherry or GFP ([…]). Repair templates are flanked by homology arms matched to gRNAs targeting either the TRAC or FOXP3 locus, respectively. […] Panel B depicts a timeline showing steps for dual AAV editing of CD4+ T cells and expansion with Rapalog. Human CD4+ T cells were edited using human TRAC gRNA_4, human FOXP3 gRNA_T9 and #3251 (MND.mCherry.FKBP.IL2RG) and #3207 (MND.GFP.FRB.IL2RB) AAV constructs (two-loci dual editing). Immediately following electroporation, the cells were placed in either 20% or 2.5% FBS containing media (recovery media). After ~16 h, the media was replaced with 20% FBS containing media and FACS analysis done on day 3 to determine editing rate.
In order to obtain sufficient numbers of cells for therapeutic use, it may be useful, in some contexts, to selectively expand engineered cells in vitro. […] See e.g., FIG. 108. In such methods, FRB-IL2RB and FKBP-IL2RG components were contained in the same cassette to select for single integration events.
For these studies, FRB-IL2RB and FKBP-IL2RG components were split into two separate cassettes, one containing GFP and the other containing mCherry, to allow for selection of two independent integrations.
A timeline for key steps for dual AAV editing of CD4+ T cells and expansion with Rapalog is depicted in FIG. 124B. […] Briefly, human CD4+ T cells were edited using human TRAC gRNA_4, and #3240 (MND.HA.FOXP3.FKBP.IL2RG) and #3243 (MND.T1D4.FRB.IL2RB) AAV constructs (single-locus dual editing). Immediately following electroporation, the cells were placed in 2.5% FBS containing media (recovery media) for ~24 hours and then maintained in 20% FBS containing media throughout the rest of the experiment.

CO[C@H]1[C@@H](O)[C@H](C)C[C@H](C)/C=C/C=C/C=C(\C)[C@@H](c2c[nH]c3c(C)cccc23)C[C@@H]2CC[C@@H](C)[C@@](O)(O2)C(=O)C(=O)N2CCCC[C@H]2C(=O)O[C@H]([C@H](C)C[C@@H]2CC[C@@H](O)[C@H](OC)C2)C[C@H](O)[C@H](C)/C=C(\C)[C@H]1O [Rapalog]
expansion of double positive cells [1]: 32 fold | enrichment of double-positive cells ([2]; #3240 and #3243, cells recovered in 2.5% FBS, 7 days of Rapalog treatment): ~10 fold | FOXP3/T1D4 double positive cells ([2]; #3240 and #3243, day 7, 100 nM AP21967 or 50 ng/mL IL-2, initial 1.6%): 19.1% | GFP/mCherry double-positive cells ([2]; donor R003471, enriched in presence of Rapalog (FIG. 32)): 28.5% | GFP/mCherry double-positive cells ([2]; donor R003657, enriched in presence of Rapalog (FIG. 32)): 13.8% | enrichment of double-positive antigen-specific Treg population ([2]; over the course of the 10 day study): approximately 15 fold | GFP/mCherry double-positive cells ([2]; two-loci #3207 and #3251, repeat experiment (FIG. 65), 10 days, initial 15.4%): 54%
